One data set can be described thus: LM T1/2, D. The data set is classed as in vitro ADME. As to conditions: dog, liver microsomes. (In general: Microsomes from liver hold many membrane-bound enzymes, among them those of drug oxidation.)
A further data set in a line: LM T1/2, Mk. The data set is classed as in vitro ADME. The conditions noted are these: monkey, liver microsomes.
Data set [1] relates to JAK2-dependent EPO-induced phosphorylation of STAT5 (Tyr694/699) in TF1 cells. Put plainly: JAK cellular selectivity assay, EPO-pSTAT5 (JAK2). The data set is classed as cell-based, human. As to conditions: Homo sapiens, TF-1; TF1 cells; read-out: JAK Cellular Selectivity (IC50) EPO-pSTAT5 (JAK2). On the procedure: (§1) The cells were then ready for the assay after incubating for 2 hours in a humidified, 5% CO2 cell culture incubator at 37°C. […] The curve fit was generated, and statistical analysis was performed using GraphPad Prism. IC50 values were derived by non-linear regression analysis and defined as the compound concentration at which the response level was reduced to half of its maximum relative to a DMSO control.

The nature of a further data set: LogD. The data set is classed as physicochemical.
The test system of data set [2] is JAK1/3-dependent IL2-induced phosphorylation of STAT5 (Tyr694/699) in Kit225 cells. The data set can be described thus: JAK cellular selectivity assay, IL2-pSTAT5 (JAK1/3). As to conditions: Homo sapiens; Kit225 cells; read-out: JAK Cellular Selectivity (IC50) IL2-pSTAT5 (JAK1/3). It counts as cell-based. On the procedure:
as §1

Data set [3] has as its system IFNα-induced CXCL10 production in human whole blood. The data set can be described thus: IFNα-induced CXCL10 production in human whole blood. It counts as cell-based. The conditions noted are these: human whole blood, IFNα 16 hours; read-out: TYK2-associated IFNα-induced-CXCL10 Production in Human Whole Blood: IC50. The method, then: Human whole blood [drawn with Ethylenediaminetetraacetic acid (EDTA) as anti-coagulant] was obtained from Zen-Bio Inc. (Durham, NC). […] The plasma was collected for detection of C-X-C motif chemokine 10 (CXCL10, IP10) secretion. CXCL10 was measured by Human CXCL10/IP-10 AlphaLISA Kit (PerkinElmer, #AL259 C/F) according to the manufacturer’s instructions.

Another data set addresses hERG (Homo sapiens, UniProt Q12809). The data set can be described thus: hERG IC50. On the technique in general: Block of hERG is tested as a sign of cardiac risk.

hERG, sequence (Q12809 whole entry): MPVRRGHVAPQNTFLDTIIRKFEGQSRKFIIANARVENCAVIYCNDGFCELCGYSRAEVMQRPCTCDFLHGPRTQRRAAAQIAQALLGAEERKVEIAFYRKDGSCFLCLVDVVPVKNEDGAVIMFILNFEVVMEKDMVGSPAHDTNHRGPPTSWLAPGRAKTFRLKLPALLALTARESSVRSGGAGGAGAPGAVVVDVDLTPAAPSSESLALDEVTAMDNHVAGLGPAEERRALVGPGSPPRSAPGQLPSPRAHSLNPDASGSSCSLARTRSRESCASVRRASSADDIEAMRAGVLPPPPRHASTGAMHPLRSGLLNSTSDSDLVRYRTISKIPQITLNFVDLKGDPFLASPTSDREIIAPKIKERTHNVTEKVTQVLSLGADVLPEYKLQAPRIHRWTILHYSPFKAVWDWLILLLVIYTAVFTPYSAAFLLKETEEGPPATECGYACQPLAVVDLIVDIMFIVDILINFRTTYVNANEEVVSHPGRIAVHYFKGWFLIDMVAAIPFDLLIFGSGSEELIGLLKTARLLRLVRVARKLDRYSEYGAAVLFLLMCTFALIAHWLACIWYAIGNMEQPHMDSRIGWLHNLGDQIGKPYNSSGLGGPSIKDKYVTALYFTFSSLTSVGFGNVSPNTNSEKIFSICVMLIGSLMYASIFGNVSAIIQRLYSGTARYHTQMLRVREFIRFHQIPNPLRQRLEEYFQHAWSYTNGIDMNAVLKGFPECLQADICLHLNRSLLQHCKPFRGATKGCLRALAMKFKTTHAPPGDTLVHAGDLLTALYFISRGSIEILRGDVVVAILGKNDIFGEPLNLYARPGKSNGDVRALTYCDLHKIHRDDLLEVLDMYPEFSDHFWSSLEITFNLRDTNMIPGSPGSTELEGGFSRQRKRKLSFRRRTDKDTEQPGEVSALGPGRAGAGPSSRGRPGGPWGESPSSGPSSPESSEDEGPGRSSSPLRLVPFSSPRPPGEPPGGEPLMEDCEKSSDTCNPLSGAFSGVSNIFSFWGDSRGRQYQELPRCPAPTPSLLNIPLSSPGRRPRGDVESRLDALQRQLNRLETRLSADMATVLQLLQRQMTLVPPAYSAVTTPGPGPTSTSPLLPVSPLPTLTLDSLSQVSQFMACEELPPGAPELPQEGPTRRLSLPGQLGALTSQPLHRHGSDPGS

As for `CNC(=O)c1nnc(NC(=O)C2CC2)c2[nH]c(-c3ccc(N)cc3OC)cc12` [SHR2396], the half-life (commonly the time needed for the level to fall by half in the phase considered) is above 139 min in the data set “LM T1/2, D” and 50 min in the data set “LM T1/2, Mk”. For the same compound, the values for the IC50 in data set [1] and in data set [2] were above 10 µM and 1.4 ± 1.4 µM, respectively. Moreover, the logD (as a rule, lipophilicity at a set pH, counting ionised and neutral species) in “LogD” is 1.19.

Consider `CNC(=O)c1nnc(NC(=O)N2CCC2)cc1Nc1cccc(-c2ncn(C)n2)c1OC` [SHR8751], for which the IC50 in data set [3] is 0.46 µM; in data set [1], above 10 µM; on hERG, above 30 µM; in data set [2], above 10 µM. Further, the half-life was above 139 min in “LM T1/2, D” and above 99 min in the data set “LM T1/2, Mk”. In the data set “LogD”, the logD came to 0.43.

In the case of `[2H]C([2H])([2H])NC(=O)c1nnc(NC(=O)N2CCC2)cc1Nc1cccc(-c2ncn(C)n2)c1OC` [SHR9332], the IC50 in data set [3] is 0.48 µM; in data set [1] it was above 10 µM; on hERG, above 30 µM; in data set [2] it was above 10 µM. Also, the half-life amounted to 46.5 min in “LM T1/2, D” and 30.9 min in the data set “LM T1/2, Mk”. This compound also gave a pH-dependent lipophilicity (logD) in the data set “LogD” of 0.48.
